In data set [1] the test system is Human neural progenitor cells (hNPCs). The experiment in a line: hNPCs cultured on the surface of hydrogels conjugated with peptides. It counts as cell-based. To be noted: for hNPC attachment and proliferation on hydrogel surface: lam-IKVAV 100 μM, our peptide 10 and 100 μM. As for the experimental part:
(§1) The lam-IKVAV peptide and our synthesized peptide of different concentrations were conjugated to PEG hydrogels through addition reaction of peptide cys thiols onto the ends of a PEGTA crosslinker as described before^9. Briefly, peptides containing stock solutions (100 μM) were prepared in the PEGTA stock solution (2% w/w) and stirred for 2 h at room temperature. In the peptide-linker stock solutions, the molar ratio of peptides to PEGTA was 1:20. The reaction kinetics of conjugate addition of cys-containing IKVAV peptides to PEGTA was followed using 5,5′-dithio-bis(2-nitrobenzoic acid) (DTNB) reagent according to previous study^9. Additional PEGTA solutions with lower peptide concentrations of 50 and 10 μM were prepared by diluting the stock solution with peptide-free […] solution (peptide: PEGTA: 1:40 and 1:200, respectively). Then PEGTA solutions containing different concentrations of peptides were added to 4-arm thiolated PEG (2% w/w) solution and mixed thoroughly to form hydrogels.
(§2) Morphology of cells was examined by immunostaining of actin. Cells were fixed with 4% (w/v) paraformaldehyde, permeabilized with 0.5% Triton X-100 (t-octylphenoxyplyethoxy-ethanol), and stained with Alexa Fluor-543 Phalloidin for 30 min. The nuclei were counterstained with 1 μg/mL DAPI for 30 min. The cells were imaged using a Leica TCS SP5 laser scanning confocal microscope (Bannockburn, Ill.).
Human NPCs were cultured on the surface of hydrogels with maintain media for 7 days. Without any bioactive peptide, hNPCs could not attach on the surface of blank PEG hydrogels (FIG. 22B). The cells formed spheres by themselves at the day 3. […] These attached cells proliferated on the surface as the function of time (FIGS. 22C and 22D). […] There was no difference about the morphology of hNPCs between these two groups.

Data set [2] can be described thus: Rheological characterization of PEG hydrogels conjugated with peptides. To be noted: 4-arm thiolated PEG 2% + PEGTA 2%, our peptide 10, 50, 100 μM; for start of gelation process (G′>G″): 37° C., lam-IKVAV 100 μM. It counts as physicochemical. As for the experimental part: Rheometer (AR1000, TA Instruments) was used to measure hydrogel mechanical properties, such as storage modulus (G′) and loss modulus (G″), and gelation time^8. Briefly, the time sweep was performed to monitor the in situ gelation at 37° C., recording the temporal evolution of G′ and G″. Frequency sweep test was used to obtain information about the stability of hydrogel structures. The stress sweep was set up by holding the frequency 1 Hz constant while increasing the stress level from 1 to 10 Pa. […] Oscillatory stress sweep allowed determination of G′ of hydrogels.
as §1

For data set [3], the system named is Human neural progenitor cells (hNPCs). The data set is described as follows: hNPC attachment, morphology and proliferation on gold-coated cover slips. The settings on record: for hNPC attachment: day 1; for state of attached hNPCs: day 10. The data set is classed as cell-based. As for the experimental part: (§3) Human neural progenitor cells were obtained from Millipore (Billerica, Mass.). The stem cell is an immortalized neural progenitor cell line derived from the ventral mesencephalon region of human fetal brain and immortalized by retroviral transduction with the v-myc oncogene. In conventional culture, laminin (20 μg/mL) was used to coat tissue culture plastic-wares at least 2 h before hNPC seeding. Human NPCs were maintained in ReNcell Neural Stem Cell Medium (Millipore) with FGF-2 (20 ng/mL) and EGF (20 ng/mL). Human NPCs were incubated at 37° C. under 5% CO2 and used before passage 5 in this study. For cell adhesion assays, cells were removed from the plate using Accutase, aspirated in growth media, and seeded on peptide or laminin coated substrates at a density of 50, 000 cells/cm^2. For differentiation study, hNPCs were cultured with the medium without FGF-2 and EGF.
The lam-IKVAV and our synthesized peptide were conjugated to gold-coated cover slips. For gold-coating on glass surfaces, cover slips were first cleaned with ethanol by sonication for 30 min. Then gold was coated on the cover slips by a sputter coater. For peptide and laminin coating, the peptide (150 μg/mL or 100 μM) or laminin (20 μg/mL) solutions were applied on the cover slips for at least 2 h. Then the solutions were removed from the slips and washed with phosphate buffered saline (PBS) for three times. Atomic force microscope (AFM) was used to examine the 3D configuration of the peptides on the surface.
To determine whether peptide-functionalized surfaces can support cell attachment and long-term culture and proliferation, hNPCs were cultured in complete growth medium, which contains FGF-2 and EGF to maintain hNPCs in the undifferentiated state. Cells were incubated at 37° C. with media changed every other day as we routinely culture hNPCs in laminin coated substrates. At the day 1, 5, and 10, cells were assayed with CyQuant (Invitrogen). The cell number was generated through a standard curve.
as §2

Another data set deals with in vitro cell cultures. The experiment in a line: safety and cytotoxic profile of genipin. It counts as cell-based. The source says:
Chitosan and gelatin are two naturally occurring polymers. Chitosan is a polysaccharide formed by cross linkage of multiple monosaccharide units. It has active acetyl groups available for cross linkage. At acidic pH, chitosan is able to undergo polymerization. Gelatin is a peptide polymer and chemically derived from denatured collagen. […] Chitosan and gelatin co-polymer can be created by mixing chitosan with gelatin using a standard and well known procedure that involves creating acidic pH for chitosan polymerization followed by mixing with heated and stirred gelatin solution. However there are two disadvantages of this approach—high osmolarity of the resultant solution (>500 mM) and acidic pH. There are also concerns for cytotoxicity to biological tissues at such high concentrations. These disadvantages render the use of this copolymer useless for clinical application, In the present invention, chitosan and gelatin were cross linked by two different approaches—the first was a covalent linkage using genipin followed by using ionic cross linkage using glycerol phosphate. Genipin is a plant derived cross linker and quite cheap. […] This concentration of genipin was added to chitosan and gelatin mixture. Genipin is able to covalently link both the saccharide and amine groups available in chitosan and gelatin, respectively. This creates a polysaccharide-peptide cross linkage. […]

For data set [4], the system named is Human neural progenitor cells (hNPCs). The experiment in a line: hNPC differentiation on coated cover slips. It counts as cell-based. The settings on record: 2 weeks, media without FGF-2 and EGF. As for the experimental part: as §3
The differentiation of hNPCs on the tested surfaces was assayed by immunocytochemistry. Human NPCs were cultured for 2 weeks with differentiation media without growth factors FGF-2 and EGF. The cells were fixed with 4% (w/v) paraformaldehyde, treated with 5% goat serum in PBS to block non-specific reactivity and incubated overnight at 4° C. with primary antibodies, such as β III tubulin and glial fibrillary acidic protein (GFAP). After washing with PBS three times, the samples were incubated with the secondary antibodies at room temperature for 3 h. Then the nuclei were counterstained with DAPI for 30 min. The samples were imaged using the same microscope as described before. At least 6 random fields per surface were analyzed for each group.

In data set [5] the test system is Human neurospheres (hNPCs). The data set is described as follows: Human neurospheres cultured inside hydrogels conjugated with peptides. It counts as cell-based. As for the experimental part: Neurospheres with uniform sizes were fabricated using a robotic fabrication system developed in our lab. Briefly, stamps with micronipple array were designed in SolidWorks and fabricated using ultra-precision lathe. The automatic neurospheres fabricator was built on a TT-C3-4040 robot (IAI Corporation, Shizuoka, Japan) with electric triggered gripper to pick up the stamp and pipette tip uptake and ejection actuator to handle liquid. Agarose solution (2% w/w) was prepared by built-in heating elements in the robot platform. The robot was programmed to first add agarose solution to culture dishes. Then the robot picked up the stamp with micronipple arrays on the bottom and pressed on the agarose solution at room temperature for 2 min. Then the highly uniform size microwells were formed in the agarose gel. Human NPC suspension was uptake by the robot and added to the culture well with microwell arrays. After 24 h of culture at 37° C. and 5% CO2, uniform sized neurospheres were formed for this study use. For 3D culture, human neurospheres with uniform size were mixed with hydrogel precursor solutions before hydrogel formation.
Viability of cells inside hydrogels was examined using LIVE/DEAD Viability Kit, which is a two color fluorescent assay based on differential permeability of live and dead cells and allows preservation of the distinctive staining pattern for a couple of hours after post-fixation with 4% (w/v) glutaraldehyde. Live cells were stained with green fluorescent SYTO 10; and dead cells with compromised cell membranes were stained with red fluorescent ethidium homodimer-2. […]
We quantified the cell migration by taking measurements of the distance between the edge of spheres and the cell bodies at their outer perimeters. FIG. 26 presents quantification of cell migration from neurospheres cultured inside hydrogels conjugated with lam-IKVAV of 100 μM and our novel IKVAV peptide of different concentrations of 0, 10, 50, and 100 μM at the day 3, 7, and 21. […]

“Also recorded” adds a separate entry of the source. Where no end group is shown, it is not given here.

In the case of “CSRARKQAASIKVAVSADR [lam-IKVAV, commercial laminin IKVAV peptide from American Peptide Company, reference compound]”, in data set [1], the “hNPC attachment and proliferation on hydrogel surface” value (shortened to “hNPC attachment and proliferation”) is on record as “aggregated together; also recorded: did not support any hNPC attachment”. In addition, in data set [2], the “start of gelation process (G′>G″)” value is recorded as 30 min. Further, in data set [3], the “hNPC morphology / spreading” value is “preferred to aggregate together”, the hNPC attachment result was “very few cells attached” and the “state of attached hNPCs” value is “floated off the surface”.
As for `COC(=O)C1=CO[C@@H](O)[C@@H]2C(CO)=CC[C@H]12` [genipin], in the data set on in vitro cell cultures, the “concentration found to be safe” value is 400 µM.
For “laminin: mouse laminin, whole ECM protein used as coating (20 μg/mL) [reference compound]”, in data set [4], the “cells differentiated into astrocytes (GFAP+)” value is reported as 74% and the “cells differentiated into neurons (β III tubulin+)” value is on record as 11%.
In the case of “Ac-Cys-Cys-Arg-Arg-Ile-Lys-Val-Ala-Val-Trp-Leu-Cys (Ac-CCRRIKVAVWLC-OH; cysteine pairing not given here) [our novel peptide]”, the “peptide density with maximum enhancement of cell migration” value in data set [5] (conjugated to PEG hydrogels) worked out at 10 µM. The “distance of hNSCs migration from neurospheres” value in data set [5] (peptide 10 μM, day 3, 7 and 21) is listed as 2 fold. In data set [5] (peptide concentration higher than 10 μM), the “effect on cell migration from neurospheres” value is recorded as “inhibitory effects on cell migration”. Also, in data set [1] (day 7, 10 and 100 μM), the “hNPC morphology on hydrogel surface” value is “displayed spreading cytoskeletons”. Moreover, the “hNPC attachment and proliferation” value in data set [1] was “improved hNPC attachment, spreading and proliferation”. Also, the “hNPC attachment and proliferation” value in data set [1] (listed as our short peptide) is on record as “cells attached at the day 1”. Also, in data set [4], the “cells differentiated into astrocytes (GFAP+)” value is given as 33% and the “cells differentiated into neurons (β III tubulin+)” value was determined as 54%. For the same molecule, the “cells differentiated into astrocytes (GFAP+)” value in data set [4] (listed as our short peptide) is “about 30%”. For the same molecule, in data set [2], the “start of gelation process (G′>G″)” value turned out to be 40 min. Moreover, the “storage modulus G′” value in data set [2] (at 2 h) is given as “about 600 Pa”. In data set [3], the “attachment and proliferation compared with laminin coated surface” value is recorded as “no significant difference”; the “hNPC morphology / spreading” value is given as “spread more evenly”; the hNPC attachment entry is given as “significantly much more cells attached compared to lam-IKVAV”; the “state of attached hNPCs” value was “totally confluent on the whole surface”.
